From patent US11944685B2, “Preparation method and application of novel injection abiraterone derivative” (TIANJIN HAIRUNJIAHE INNOVATIVE PHARMACEUTICAL RESEARCH …, priority 2021, dated 2024)

Experiments:
[1] = Toxicity study: blood routine, blood biochemistry and tissue pathology of healthy ICR male mice; type: in vivo; details: 28 days
Description: The influence of the polyaminopolycarboxylic acid modified Abiraterone derivative AA-DTPA prepared in Example 5 on blood routine, blood biochemistry and pathological tissues of ICR healthy male mice following administration for 28 days includes the following steps:
20 ICR mice were selected, and were divided into 4 groups (NS group, positive control group AA 150 mg/kg/d p.o., and experimental groups AA-DTPA 35 mg/kg/w and 52.5 mg/kg/w i.v.), each of which had 5 mice.
The mice were administrated intragastrically once daily, and administrated intravenously, […], and blood was sampled for submission following the treatment for 28 days; all mice were sacrificed by cervical dislocation, hearts, livers, spleens, lungs, kidneys, and testes were dissected and collected, and fixed with 10% formaldehyde; and after being embedded by paraffin, the organs were sectioned, and histopathological examination was performed after HE staining (see FIG. 13 for results from blood routine experiments, FIG. 14 for results from blood biochemistry experiments, and FIG. 15 for results from histopathological experiments).

[2] = Organ indexes and body weights of prostate cancer LNCaP tumor-bearing mice; type: in vivo, nude mice; details: 28 days; for body weights of the mice: vs normal group
Description: A normal group (Normal) was not given any treatment; a model group (NS) received a daily injection of an equal volume of physiological saline; an AA group (150 mg/kg/d p.o.) was administrated intragastrically, once daily; and an AA-DTPA group (35 mg/kg/w i.v.) and an AA-DTPA group (52.5 mg/kg/w i.v.) were administrated from tail veins once weekly.
Diameters of the xenograft tumors of the nude mice were measured with vernier calipers, and the anti-tumor effect of the Abiraterone was dynamically observed.
Two days following the last administration, the mice were sacrificed, and hearts, livers, spleens, lungs, kidneys, and testes were dissected off and weighed, and organ indexes [organ index=organ weight/(body weight−tumor weight), unit: mg/g] were calculated.

[3] = Pharmacokinetic study in rats (plasma, LC-MS/MS); type: in vivo, SD rats
Description: Pharmacokinetics experiments of the polyaminopolycarboxylic acid modified abiraterone derivative AA-DTPA prepared in Example 2 in rats includes the following steps:
A total of eight healthy male SD rats weighing 220+/−20 g were randomly divided into 2 groups, with 4 rats in each group; one group was administered with AA-DTPA from tail veins of the rats at a dose of 8 mg/kg in a volume of 0.2 ml/200 g rat; the other group was administrated intragastrically with AA at a dose of 30 mg/kg in a volume of 0.2 ml/200 g rat; blood samples were collected at time points of 5, 15, and 30 minutes, as well as 1, 2, 4, 6, 12, and 24 hours before and after administration for both groups; and at each time point, 0.5 ml of blood was sampled from canthi, and was placed in a heparinized plastic centrifuge tube, centrifugation was performed at 3000 r/min for 10 minutes, and plasma was separated therefrom.
50 μl of rat plasma samples+5 μl of methanol ice (1:1, v/v)+150 μl of precipitant were taken, and fully whirled and shaken for 3 minutes, a mixture was then centrifuged at 4° and 12000 r/min for 10 minutes, and a supernatant was pipetted, and analyzed with sample injection by LC-MS/MS (liquid chromatography-tandem mass spectrometry).

[4] = test system: human prostate cancer cells (DU145); details: 2.5-160 μM, incubation 48 hours, CCK8; compared with Abiraterone AA
Description: (§1) Cell survival rate tested by CCK8 method: after the solution was pipetted from the wells, each well was added with 10 μl of CCK8 reagent and 100 μl of serum-free medium for further culture for 4 hours. An absorbance value of each well at 450 nm was determined using a microplate reader.

[5] = test system: human prostate cancer cells (LNCaP); details: 2.5-160 μM, incubation 48 hours, CCK8; compared with Abiraterone AA
Description: as §1

[6] = test system: human prostate cancer LNCaP derived xenograft tumors; experiment: Inhibition of growth of human prostate cancer LNCaP derived xenograft tumors of nude mice; details: for tumor inhibition effect compared with the AA group: 28 days; for tumor growth: treatment for 28 days
[7] = intragastric administration 30 mg/kg
[8] = healthy male ICR mice, 35 and 52.5 mg/kg/w i.v. vs AA 150 mg/kg/d p.o.
[9] = healthy male ICR mice, 35 and 52.5 mg/kg/w i.v.
[10] = intravenous injection (tail vein) 8 mg/kg

C[C@]12CC[C@H](O)CC1=CC[C@@H]1[C@@H]2CC[C@]2(C)C(c3cccnc3)=CC[C@@H]12 [AA, Abiraterone]
histopathology of hearts, spleens, kidneys and testes ([1]; 150 mg/kg/d p.o., HE staining): no abnormal changes
histopathology of livers ([1]; 150 mg/kg/d p.o., HE staining): mild pathological changes
histopathology of lungs ([1]; 150 mg/kg/d p.o., HE staining): mild pathological changes
heart indexes ([2]; 150 mg/kg/d p.o.): slight decline
indexes of livers, lungs and kidneys vs model group ([2]; 150 mg/kg/d p.o.): no significant difference
testis indexes ([2]; 150 mg/kg/d p.o., compared with normal group and model group): testicular atrophy and a sharp decrease in testis indexes
absorption in vivo [3, 7]: absorbed slowly
peak value of AA concentration in blood plasma [3, 7]: 15.28 ± 1.24 ng/mL
time to peak plasma concentration [3, 7]: 0.5 h
half-life ([3]; male, SD, rat, plasma, po, intragastric administration 30 mg/kg, read-out: half-life period (converted)): 8.46 h

CC12CCC(OC(=O)CN(CCN(CCN(CC(=O)O)CC(=O)O)CC(=O)O)CC(=O)O)CC1=CCC1C2CCC2(C)C(c3cccnc3)=CCC12 (stereo not drawn) [AA-DTPA, diethylenetriaminepentaacetic acid modified Abiraterone derivative]
histopathology of lungs ([1]; 52.5 mg/kg/w i.v., HE staining): mild pathological changes
organ toxicity (histopathology) ([1]; 35 and 52.5 mg/kg/w i.v.): no obvious organ toxicity
histopathology of hearts, spleens, kidneys and testes ([1]; 35 and 52.5 mg/kg/w i.v., HE staining): no abnormal changes
effect on alanine aminotransferase and aspartate aminotransferase compared with AA group [1, 8]: less effect
effect on number of lymphocytes and monocytes compared with AA group [1, 8]: less effect
effect on blood biochemistry [1, 9]: less effect
effect on blood routine [1, 9]: less effect
toxicity compared with AA ([1]; healthy male ICR mice): less toxic than that of the AA
body weights of the mice ([2]; 35 mg/kg i.v. weekly): equivalent to those of the mice in the normal group
body weights of the mice ([2]; 52.5 mg/kg i.v. weekly): equivalent to those of the mice in the normal group
indexes of hearts, livers, lungs, kidneys and testes vs model group ([2]; AA-DTPA treatment group (35 and 52.5 mg/kg/w i.v.)): No significant difference
organ toxicity compared with AA under the treatment dose ([2]; LNCaP tumor-bearing mice): lower than that of the AA
in vitro anti-tumor effect (DU145), cell survival rate [4]: superior to the in vitro anti-tumor effect of Abiraterone AA
in vitro anti-tumor effect (LNCaP), cell survival rate [5]: superior to the in vitro anti-tumor effect of Abiraterone AA
tumor inhibition effect compared with the AA group ([6]; 35 mg/kg/w i.v. vs AA 150 mg/kg/d p.o.): better tumor inhibition effects
tumor growth ([6]; 35 mg/kg/w i.v.): significantly inhibited
tumor inhibition effect compared with the AA group ([6]; 52.5 mg/kg/w i.v. vs AA 150 mg/kg/d p.o.): better tumor inhibition effects
tumor growth ([6]; 52.5 mg/kg/w i.v.): significantly inhibited
average clearance rate [3, 10]: 8.55 mL/min/kg
half-life period [3, 10]: 0.26 h
plasma concentration-time profile [3, 10]: double exponential decay

CC12CCC(OC(=O)CN(CCN(CCN(CCN(CC(=O)O)CC(=O)O)CC(=O)O)CC(=O)O)CC(=O)O)CC1=CCC1C2CCC2(C)C(c3cccnc3)=CCC12 (stereo not drawn) [AA-TTHA, triethylenetetramine hexaacetic acid modified Abiraterone derivative]
in vitro anti-tumor effect (DU145), cell survival rate [4]: superior to the in vitro anti-tumor effect of Abiraterone AA
in vitro anti-tumor effect (LNCaP), cell survival rate [5]: superior to the in vitro anti-tumor effect of Abiraterone AA
